Drawing on US9359367B2, “Tetrahydroquinazolinone derivatives as PARP inhibitors” (Lupin Limited, priority 2012, dated 2016), this text covers IC50 for 14 compounds.

This test deals with T1, PARP1 (Homo sapiens, UniProt P09874).
T1 construct: purchased BPS Bioscience
As to the kind of experiment: PARP1 Biochemical Assay (BPS Bioscience kit, chemiluminescence). The conditions noted are these: histone-coated plate, biotinilated NAD+, 25° C. for 60 min, luminescence, read-out: PARP 1 inhibition IC50. The method in brief:
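Human PARP1 (25–75 ng/well) with activated DNA was incubated with compound on histone-coated wells. Biotinylated NAD+ was added and the reaction ran 60 min at 25 °C. Ribosylation was detected by streptavidin-HRP chemiluminescence, % inhibition was normalised to enzyme-free and uninhibited controls, and IC50 was fitted from % inhibition versus concentration.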

T1 sequence (P09874 whole entry): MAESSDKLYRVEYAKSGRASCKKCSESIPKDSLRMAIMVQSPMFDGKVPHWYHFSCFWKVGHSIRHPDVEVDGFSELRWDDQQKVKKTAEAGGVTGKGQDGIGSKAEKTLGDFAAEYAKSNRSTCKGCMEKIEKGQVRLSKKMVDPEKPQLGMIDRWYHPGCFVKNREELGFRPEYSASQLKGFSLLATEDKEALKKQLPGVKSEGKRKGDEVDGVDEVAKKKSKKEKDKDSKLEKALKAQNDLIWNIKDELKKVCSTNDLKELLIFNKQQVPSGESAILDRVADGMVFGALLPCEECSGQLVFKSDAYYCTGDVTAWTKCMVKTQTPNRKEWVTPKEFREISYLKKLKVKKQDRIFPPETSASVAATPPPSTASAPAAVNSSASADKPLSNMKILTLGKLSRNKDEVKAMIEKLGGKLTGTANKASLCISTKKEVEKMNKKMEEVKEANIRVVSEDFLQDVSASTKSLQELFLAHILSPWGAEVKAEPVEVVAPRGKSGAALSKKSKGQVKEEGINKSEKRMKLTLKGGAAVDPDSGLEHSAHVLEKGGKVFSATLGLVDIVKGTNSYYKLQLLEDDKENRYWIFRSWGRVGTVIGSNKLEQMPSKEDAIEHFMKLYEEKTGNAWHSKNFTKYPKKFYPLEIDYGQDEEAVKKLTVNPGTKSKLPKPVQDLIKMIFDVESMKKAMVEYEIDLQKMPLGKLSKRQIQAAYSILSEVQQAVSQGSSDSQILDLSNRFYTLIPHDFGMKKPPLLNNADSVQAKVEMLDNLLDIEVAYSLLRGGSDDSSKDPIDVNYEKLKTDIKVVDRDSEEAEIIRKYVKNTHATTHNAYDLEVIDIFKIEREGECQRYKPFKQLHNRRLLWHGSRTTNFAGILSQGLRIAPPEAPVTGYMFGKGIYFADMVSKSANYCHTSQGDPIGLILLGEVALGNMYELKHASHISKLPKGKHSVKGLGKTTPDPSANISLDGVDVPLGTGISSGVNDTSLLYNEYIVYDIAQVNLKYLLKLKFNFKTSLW

In general, IC50 refers to the concentration at which inhibition is half-maximal. As to `Cc1cnc(N2CCN([C@H]3C=C(c4nc5c(c(=O)[nH]4)CC4(CC5)CC4)CC3)CC2)s1` [Compound 113, (R)-2′-(3-(4-(5-methylthiazol-2-yl)piperazin-1-yl)cyclopent-1-en-1-yl)-7′,8′-dihydro-3′H-spiro[cyclopropane-1,6′-quinazolin]-4′(5′H)-one], the IC50 is 1 to 500 nM.
Consider `O=c1[nH]c(C2=C[C@H](N3CC=C(c4ccc(Cl)cc4)CC3)CC2)nc2c1CC1(CC2)CC1` [Compound 46, (R)-2′-(3-(4-(4-chlorophenyl)-5,6-dihydropyridin-1(2H)-yl)cyclopent-1-en-1-yl)-7′,8′-dihydro-3′H-spiro[cyclopropane-1,6′-quinazolin]-4′(5′H)-one], for which the IC50 is 1 to 500 nM.
As for `O=c1[nH]c(CCCN2CC3CC2CN3c2ccc(F)cc2)nc2c1CC1(CC2)CC1` (centres unmarked) [Compound 11, 2′-(3-(5-(4-fluorophenyl)-2,5-diazabicyclo[2.2.1]heptan-2-yl)propyl)-7′,8′-dihydro-3′H-spiro[cyclopropane-1,6′-quinazolin]-4′(5′H)-one], the figure is 501 to 5000 nM; as for `O=c1[nH]c(C2=CC(N3CCN(c4ccncc4)CC3)CC2)nc2c1CC1(CC2)CC1` (centres unmarked) [Compound 39, 2′-(3-(4-(pyridin-4-yl)piperazin-1-yl)cyclopent-1-en-1-yl)-7′,8′-dihydro-3′H-spiro[cyclopropane-1,6′-quinazolin]-4′(5′H)-one], 1 to 500 nM; as for `O=C1CN(c2ccc(F)cc2)CCN1CCCc1nc2c(c(=O)[nH]1)CC1(CC2)CC1` [Compound 33, 2′-(3-(4-(4-fluorophenyl)-2-oxopiperazin-1-yl)propyl)-7′,8′-dihydro-3′H-spiro[cyclopropane-1,6′-quinazolin]-4′(5′H)-one], 5000 to 500000 nM.
Consider `O=c1[nH]c(C2=C[C@H](N3CCN(c4c(F)cccc4Cl)CC3)CC2)nc2c1CC1(CC2)CC1` [Compound 139, (R)-2′-(3-(4-(2-chloro-6-fluorophenyl)piperazin-1-yl)cyclopent-1-en-1-yl)-7′,8′-dihydro-3′H-spiro[cyclopropane-1,6′-quinazolin]-4′(5′H)-one], for which the IC50 fell in the range of 5000 to 500000 nM.
As for `O=c1[nH]c(CCCN2CCN(c3ccc(F)cc3)CC2)nc2c1C1CCC2C1` (centres unmarked) [Compound 35, 2-(3-(4-(4-fluorophenyl)piperazin-1-yl)propyl)-5,6,7,8-tetrahydro-5,8-methanoquinazolin-4(3H)-one], the IC50 lay within 5000 to 500000 nM.
As for `O=c1[nH]c(CCCN2CCN(c3ccc(F)cc3)CC2)nc2c1CCCC21CC1` [Compound 1, 2′-(3-(4-(4-fluorophenyl)piperazin-1-yl)propyl)-6′,7′-dihydro-3′H-spiro[cyclopropane-1,8′-quinazolin]-4′(5′H)-one], the figure is 1 to 500 nM; as for `O=c1[nH]c(C2=C[C@H](N3CCN(c4ccc(Cl)cc4)CC3)CC2)nc2c1CCCC21CC1` [Compound 41, (R)-2′-(3-(4-(4-chlorophenyl)piperazin-1-yl)cyclopent-1-en-1-yl)-6′,7′-dihydro-3′H-spiro[cyclopropane-1,8′-quinazolin]-4′(5′H)-one], 5000 to 500000 nM; as for `Cc1ccccc1N1CCN([C@H]2C=C(c3nc4c(c(=O)[nH]3)CC3(CC4)CC3)CC2)CC1` [Compound 90, (R)-2′-(3-(4-(o-tolyl)piperazin-1-yl)cyclopent-1-en-1-yl)-7′,8′-dihydro-3′H-spiro[cyclopropane-1,6′-quinazolin]-4′(5′H)-one], 1 to 500 nM.
As for `CC(C)(CCc1nc2c(c(=O)[nH]1)CC1(CC2)CC1)N1CCN(c2ccc(F)cc2)CC1` [Compound 30, 2′-(3-(4-(4-fluorophenyl)piperazin-1-yl)-3-methylbutyl)-7′,8′-dihydro-3′H-spiro[cyclopropane-1,6′-quinazolin]-4′(5′H)-one], the figure is 1 to 500 nM; as for `O=c1[nH]c(C2=C[C@H](N3CCN(c4cc(F)cc(F)c4)CC3)CC2)nc2c1CC1(CC2)CC1` [Compound 109, (R)-2′-(3-(4-(3,5-difluorophenyl)piperazin-1-yl)cyclopent-1-en-1-yl)-7′,8′-dihydro-3′H-spiro[cyclopropane-1,6′-quinazolin]-4′(5′H)-one], 1 to 500 nM.
As for `O=c1[nH]c(C2=C[C@H](N3CCN(c4ncc(Cl)cc4Cl)CC3)CC2)nc2c1CC1(CC2)CC1` [Compound 107, (R)-2′-(3-(4-(3,5-dichloropyridin-2-yl)piperazin-1-yl)cyclopent-1-en-1-yl)-7′,8′-dihydro-3′H-spiro[cyclopropane-1,6′-quinazolin]-4′(5′H)-one], the figure is 1 to 500 nM.
Consider `O=c1[nH]c(CCCN2CCN(c3ccc(Cl)cc3)CC2)nc2c1CCCC21CC1` [Compound 2, 2′-(3-(4-(4-chlorophenyl)piperazin-1-yl)propyl)-6′,7′-dihydro-3′H-spiro[cyclopropane-1,8′-quinazolin]-4′(5′H)-one], for which the IC50 lay in the range of 1 to 500 nM.
